From paper PMC5216351, “Obtaining control of cell surface functionalizations via Pre-targeting and Supramolecular host guest interactions” (Scientific Reports, 2017) come the findings set out here.

What is called Kd is the free concentration of one partner at which half of the binding sites on the other are occupied at equilibrium, for simple one-to-one binding. A low value points to a tighter complex.

The test system of assay [1] is MDAMB231 X4 cells. As to the kind of experiment: Host-guest dependent cell functionalization, confocal microscopy and flow cytometry. Format: cell-based, human. To be noted: peptide 10 μM, polymer 10 μM β-CD / 1 μM polymer, 1 h each at 0 °C; Fig. 3a. As for the experimental part: The receptor-mediated functionalization of cells was examined by confocal microscopy and flow cytometry (see also ‘Ac-TZ14011-Ad induced cell functionalization analyzed by flow cytometry’). For Confocal microscopy MDAMB231 × 4 cells (80,000 per well) were incubated with either Ac-TZ14011 (10 μM), Ac-TZ14011-Ad (10 μM), or none, for 1 h at 0 °C in 1 mL DMEM. […] Thereafter, the cells were washed twice with PBS and confocal images were acquired. All experiments were performed in 6-fold and for each condition per experiment at least 10 cells were included in the study. The Cy5 signal present on the cell in each sample was quantified to analyze differences between the amount of binding of the polymers to the cells when either, no peptide, Ac-TZ14011, or Ac-TZ14011-Ad was present. For normalization all results were divided by the average fluorescence value obtained when just the polymer was added. The significance of the obtained differences was determined by student T-test (two tailed, unpaired).
Besides examining the receptor-mediated functionalization of cells by confocal microscopy (see ‘Ac-TZ14011-Ad induced cell functionalization analyzed by confocal microscopy’) the functionalization was also examined by flow cytometry to quantify the rate of functionalization. […] For data normalization, all results were divided by the average fluorescence value obtained when only the polymer was added. […]
In general terms: In flow cytometry, cells or beads pass a laser one at a time.

Assay [2] has as its target T1, chemokine receptor 4 (CXCR4) (Homo sapiens, UniProt P61073).
T1 construct: expressed in transfected cells; host or cells: MDAMB231 X4 (human MDA-MB-231 breast cancer cells, provided by Dr. Gary Luker)
As to the kind of experiment: Flow cytometry competition binding on viable CXCR4 expressing cells (receptor affinity). As to conditions: competition with Ac-TZ14011-MSAP (250 nM), 0.5 – 15,000 nM in PBS, MDAMB231 X4 cells, 1 h on ice, n = 2, One site-Fit Ki. The protocol: Human MDAMB231 cells, transfected with human CXCR4 conjugated GFP (MDAMB231 X4), were kindly provided by Dr. Gary Luker (Center for Molecular Imaging, University of Michigan, USA).5 Native MDAMB231 cells with basal CXCR4 expression were used as control.6 Cells we re maintained in Dulbecco’s minimum essential medium (DMEM) enriched with 10% fetal bovine serum and 5 mL Penicillin/Streptomycin (1,000 units/mL Penicillin; 1,000 μg/mL Streptomycin) (all Life Technologies Inc.). Cell lines were cultured and maintained under standard conditions […]
One day prior the experiment, cells were trypsinized, seeded onto culture dishes with glass insert (ø35mm glass bottom dishes No. 15, poly-d-lysine coated, γ-Irradiated, MatTek corporation) and incubated overnight in 2 mL DMEM. […] The intrinsic GFP signal in the MDAMB231 X4 cells was measured with excitation at 488 nm and emission was collected at 500-525 nm.
Cy3 fluorescence was measured with excitation at 514 nm, emission was collected at 550-5 70 nm. Cy5 fluorescence was measured with excitation at 633 nm, emission was collected at 650-700 nm. Any Hoechst 33342 fluorescence was measured using 405 nm excitation and emission was collected at 420-470 nm. Images and signal quantifications were obtained using Leica Application Suite software, by applying the polygon function and calculating the average gray value/m2 for each cell. […]

Positions of bridges follow the written chain, without caps; N, C: chain ends. Non-standard residues stand in square brackets, D forms with d. Residues, ends and D or L forms follow the SMILES beside them. *: point of attachment. Adamantane1carbonyl = O=C(C12CC3CC(CC(C3)C1)C2)*; 2Nal = N[C@@H](Cc1ccc2ccccc2c1)C(=O)O; Cit = NC(=O)NCCC[C@H](N)C(=O)O

T1 sequence (P61073 whole entry): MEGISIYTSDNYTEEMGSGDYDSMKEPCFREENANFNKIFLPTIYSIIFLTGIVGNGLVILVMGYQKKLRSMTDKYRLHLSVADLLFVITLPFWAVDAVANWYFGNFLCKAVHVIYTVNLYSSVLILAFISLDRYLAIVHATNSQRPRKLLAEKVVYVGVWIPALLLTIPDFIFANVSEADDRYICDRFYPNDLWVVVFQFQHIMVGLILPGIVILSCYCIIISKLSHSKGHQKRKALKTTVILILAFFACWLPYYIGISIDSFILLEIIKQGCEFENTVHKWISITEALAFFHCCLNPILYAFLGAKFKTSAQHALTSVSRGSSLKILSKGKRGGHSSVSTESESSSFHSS

In the case of `CC(=O)N[C@@H](CCCNC(=N)N)C(=O)N[C@@H](CCCNC(=N)N)C(=O)N[C@@H](Cc1ccc2ccccc2c1)C(=O)N[C@H]1CSSC[C@@H](C(=O)N[C@@H](CCCNC(=N)N)C(N)=O)NC(=O)[C@H](CCCNC(N)=O)NC(=O)[C@H](CCCNC(=N)N)NC(=O)[C@H](Cc2ccc(O)cc2)NC(=O)[C@@H]2CCCN2C(=O)[C@@H](CCCCNC(=O)C23CC4CC(CC(C4)C2)C3)NC(=O)[C@H](CCCNC(=N)N)NC(=O)[C@H](CCCNC(N)=O)NC(=O)[C@H](Cc2ccc(O)cc2)NC1=O` [Ac-TZ14011-Ad] (Ac-RR[2Nal]CY[Cit]R[dK](Adamantane1carbonyl)PYR[Cit]CR-NH2; disulfide 4-13), the “effect of pre-targeting peptide on Cy5_0.5CD10PIBMA39 binding” value in assay [1] was “further enhances this effect”. In addition, the Kd in assay [2] worked out at 0.056 µM.
